{
  "source": "patent US6642209B1",
  "about": "“Use of adenosine compounds to alleviate or normalize pathologically hyperexcited sensory nerve function in a human patient” (priority 1990, dated 2003)",
  "key": {"[1]": {"assay": "Anesthesia score chart comparing anesthetic agents for the four components of anesthesia (Table 1)", "design": "key: 0 no effect; 1 minimal; 2 mostly; 3 maximal"}, "[2]": {"system": "dogs", "assay": "Oxygen transport and regional tissue oxygenation during graded induced hypotension", "format": "in vivo, dog", "protocol": "Arterial and pulmonary artery (Swan-Ganz) catheters were placed via a femoral cut down. […] Another PO2 sensor probe was placed on the surface of the liver, kidney, subcutaneous, and muscle of the chest wall through a small skin incision. Referring to FIG. 6, the dogs were divided into three groups: (a) hemorrhagic (n=7), (b) isoflurane (n=8), and (c) ATP (n=8). […] The following were measured and/or calculated: […] The data were analyzed using ANOVA with the Bonferroni t-test and unpaired t-test where appropriate, accepting p<0.05 as significant."}, "[3]": {"system": "rabbits", "assay": "Hypothermia induced under adenosine or ATP infusion", "format": "in vivo, rabbit", "details": "external cooling", "protocol": "The hypothermic and rewarming effects of an adenosine compound are tested in experimental animals prepared similarly as in the rabbit model described herein to test for anesthetic effects, except that the body temperature is allowed to fall. In animal studies (rabbit) where the room has a temperature of approximately 22° C., the body temperature will fall from a norm of about 39° C. to about 32° C. in about three hours. If the animal is cooled further with ice bags, a temperature of approximately 22° C. can be achieved in three hours without cardiovascular decompensation. Rewarming is done with the aid of a thermal blanket and heat lamp. The effective dosages of adenosine compound ranged from about 100 μg/kg/min to about 5000 μg/kg/min.\nReferring to FIG. 7, the body temperature versus time plots are shown for eight different experiments. In Run 1, adenosine 500 μg/kg/min was administered intravenously to rabbits for six hours. The administration was then stopped and the body temperatures were allowed to recover.\nIn Run 2, ATP 500 μg/kg/min was administered intravenously for six hours. At that time, the body temperature was 31.5° C. The animal's body temperature was allowed to recover by applying external heating for four hours when (at the arrow) the external heating was removed and the temperature was allowed to fall. The body temperature again fell.\nIn Run 3, ATP was administered intravenously. The body temperature stabilized after ten hours at 32.5° C.\nIn Runs 4, 5, and 6, adenosine was administered to rabbits until the body temperature reached a constant value. In Run 4, after five hours, the body temperature stabilized at 33° C. In Run 6, after six hours, the temperature stabilized at 31.5° C.\nIn Run 7, five unmedicated New Zealand rabbits were anesthetized with halothane in O2 using a face mask. The ear vein was cannulated with a 22 gauge plastic catheter for drug infusion. 500 μg/kg/min to 5500 μ/kg/min adenosine was administered IV. Body temperature was monitored through a rectal thermometer. The body temperature started at approximately 38.5° C. After the application of ice bags, the temperature dropped approximately 5.5° C./hr until a minimum body temperature of approximately 22° C. was achieved.\nThe ice bags were removed and external heating applied. The body temperature of all rabbits returned to normal, and the rabbits were apparently normal.\nIn a comparison, in Run 8, six rabbits were anesthetized with isofluane and external cooling applied."}, "[4]": {"system": "experimental animals", "details": "cited from earlier work"}},
  "note": "Entries after “also recorded” stand apart in the source; their conditions may differ.",
  "data": [
    {"smiles": "FC(F)OC(Cl)C(F)(F)F", "note": "(centres unmarked) [isoflurane]", "values": [
      {"measurement": "Antinociception (analgesia, less pain perception)", "setting": "[1]; Anesthesia Score 0 to 3", "result": 1},
      {"measurement": "Inhibition of Stress (autonomic responses: blood pressure, heart rate; endocrine and metabolic responses)", "setting": "[1]; Anesthesia Score 0 to 3", "result": 1},
      {"measurement": "Muscle Relaxation", "setting": "[1]; Anesthesia Score 0 to 3", "result": 1},
      {"measurement": "Sleep (unconsciousness, amnesia, sedation)", "setting": "[1]; Anesthesia Score 0 to 3", "result": 3},
      {"measurement": "TOTALS of Anesthesia Score", "setting": "[1]; sum of the four components", "result": 6},
      {"measurement": "O2 supply/demand ratio", "setting": "[2]; graded hypotension to MAP 30 mmHg", "result": "reduced O2 supply/demand ratio"},
      {"measurement": "O2 delivery (DO2)", "setting": "[2]; graded hypotension, higher dosage", "result": "seriously depressed DO2"},
      {"measurement": "survival during body temperature lowering", "setting": "[3]; Run 7 (five rabbits), Run 8 (six rabbits)", "result": "one rabbit expired due to ventricular fibrillation; also recorded: another expired due to pulmonary edema"},
      {"measurement": "shivering during body temperature lowering", "setting": "[3]; Run 7, Run 8", "result": "shiver violently"},
      {"measurement": "fatal to effective anesthetic ratio", "setting": "[4]; in vivo", "result": "3.02±0.13"},
      {"measurement": "safety range relative to halothane", "setting": "[4]; other reports", "result": "about 1.88 times"}
    ]}
  ]
}
